The source of these data is US11944624B2, “Peptide and small molecule agonists of EphA and their uses” (CASE WESTERN RESERVE UNIVERSITY, priority 2017, dated 2024).

“Also recorded” adds a separate entry of the source.

In general, IC50 refers to the midpoint of a concentration-inhibition curve.

The target of experiment [1] is T1, EphA2 (Homo sapiens, UniProt P29317). Briefly: EphA2 activation in MDA-MB-231-A2 cells (phosphorylated/total EphA2, Example 2). Format: cell-based. More on the design: expressed in transfected cells; host or cells: MDA-MB-231 (MDA-231-A2 / MDA-MB-231-A2), puromycin selected. The following applies: MDA-MB-231-A2 cells, 2, 10 and 50 μM, 30 min. On the procedure: To evaluate the compounds, we utilized a MDA-MB-231 breast cancer cell line which overexpresses EphA2 receptor (MDA-MB-231-A2). The ratio of phosphorylated EphA2 protein over total EphA2 protein was measured after treatment with the various compounds as the readout for receptor activation. All the compounds were examined with doses of 2, 10, and 50 μM, and we used 50 μM Doxazosin and 0.5% DMSO as the positive and negative control, respectively (FIG. 27). […] Inspired by the dimer design, we also generated dimer structure based on the piperazine ring as the core as illustrated by compounds 25 and 26.
MDA-MB-231 EphA2-overexpressing cells were plated in 12-well dishes at a density of 100,000 cells/well and grown for 24 hours prior to stimulation with appropriate compounds and ephrins for 30 min and 10 min, respectively. Compounds were prepared in DMSO at 200 times the final concentrations and 0.5% DMSO was used as vehicle control. Following treatment, cells were washed and lysed in modified RIPA Buffer (20 mM Tris-HCl pH 7.4, 20 mM NaF, 150 mM NaCl, 10% glycerol, 0.1% SDS, 0.5% DCA, 2 mM EDTA, 1% Triton X-100, 2 mM Na3VO4, and protease inhibitors, including 1 mM phenylmethylsulphonyl fluoride, and 2 μg/ml each of aprotinin and leupeptin) for 20 min, followed by immunoprecipitation. For immunoprecipitation, lysates were combined with 10 μg of ephrin-A1-Fc and 10-15 μl of Gamma-Bind Protein G beads (GE Healthcare Bioscience, Pittsburgh, PA) and rotated for 3 hours at 4° C. 10 μg of human unconjugated Fc was used as a negative control. Beads were pelleted at 9,000 rpm for 2 min at 4° C., and washed twice with 1 ml of IP Wash Buffer (20 mM Tris, pH 7.4, 10% glycerol, 50 mM NaCl, 0.2% Triton X-100, 0.5 mM Na3VO4, 0.5 mM PMSF). All wash buffer was removed and beads were resuspended in 25 μl of 4× LDS Loading Buffer (Thermo Fisher, Grand Island, NY) with 4 μl of 10× Bolt Sample Reducing Agent (Thermo Fisher), followed by Western Blotting. Samples were boiled 5 min and run on 4-12% Bis-Tris Plus gels (Thermo Fisher), followed by transfer to Immobilon-P PVDF membranes (Millipore, Billerica, MA). Membranes were blocked 1 hr at room temperature in 3% BSA in TBS containing 0.05% Tween-20 (TBS-T) followed by overnight incubation with pEphA/B (1:500) and EphA2 (Santa Cruz) (1:1000) primary antibodies. Membranes were washed in TBS-T and incubated with goat anti-rabbit-HRP (1:5000) secondary antibody 1 hr at room temperature, followed by washing and developing with Luminol Reagent (Santa Cruz). Band intensities were quantified using Quantity One software (Bio-Rad, Hercules, CA).

The next experiment deals with MDA-MB-231 cells. Kind of experiment: Clonogenic (colony formation) assay. Format: cell-based. The following applies: 0.08-10 μM, 14 days. The procedure:
MDA-MB-231 cells (1000 cells/well) were seeded in 12-well plates and cultured for 24 h, followed by treatment with various concentrations of the Doxazosin analogs (0, 0.08, 0.4, 2 and 10 μM) in 0.5% DMSO for 14 days. After washing with PBS, colonies were fixed in 4% paraformaldehyde in PBS, washed in 20% methanol, and stained with 0.5% crystal violet.

Experiment [2] addresses T2, rat α1a adrenergic receptor (Rattus norvegicus, UniProt P43140).
T2 construct: Eurofins Panlabs Taiwan, Ltd. (contract assay)
T2 sequence (P43140 1-466): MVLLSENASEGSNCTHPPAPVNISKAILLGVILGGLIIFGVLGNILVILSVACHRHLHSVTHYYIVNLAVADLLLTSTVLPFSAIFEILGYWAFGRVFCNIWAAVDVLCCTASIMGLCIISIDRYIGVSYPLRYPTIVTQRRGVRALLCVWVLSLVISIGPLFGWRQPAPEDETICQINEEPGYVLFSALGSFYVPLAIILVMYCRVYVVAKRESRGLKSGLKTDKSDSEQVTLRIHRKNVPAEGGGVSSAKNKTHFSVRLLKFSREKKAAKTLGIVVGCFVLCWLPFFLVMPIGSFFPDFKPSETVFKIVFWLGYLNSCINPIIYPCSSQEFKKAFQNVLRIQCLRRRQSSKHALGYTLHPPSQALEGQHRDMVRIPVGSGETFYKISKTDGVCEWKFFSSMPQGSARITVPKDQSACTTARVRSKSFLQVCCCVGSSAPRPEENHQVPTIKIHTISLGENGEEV
Kind of experiment: Adrenoceptor binding, [3H]-prazosin competition. The following applies: [3H]-prazosin 0.25 nM, triplicate, mean±SD; read-out: IC50, α-adrenoceptor binding. On the procedure: Analysis of Doxazosin and analog binding to rat α1a adrenergic receptor was performed by Eurofins Panlabs Taiwan, Ltd. (Taiwan). [^3H]-prazosin at 0.25 nM was used as the radioligand. […] Non-specific binding was defined by use of 10 μM phentolamine. Incubations were terminated by vacuum filtration over 0.1% PEI pretreated glass fiber filters and filters were washed for 10 s with ice cold 0.1M NaCl and radioactivity retained on the filters was determined by liquid scintillation spectrometry. IC50 values were determined by a non-linear regression analysis using GraphPad Prism v.5 (GraphPad).

Experiment [3] addresses T1, EphA2. Kind of experiment: EphA2 internalization in MDA-MB-231 cells (immunofluorescence, Example 2). Format: cell-based. Set-up: expressed in transfected cells; host or cells: MDA-MB-231 (MDA-231-A2 / MDA-MB-231-A2), puromycin selected. The following applies: 1 hr, doses 0.4, 2, 10, 50 μM. The procedure: This was performed using the MDA-MB-231 cell line. This cell line spreads well in culture, thereby facilitating immunofluorescence detection of cell surface and intracellular EphA2 (FIG. 28). […] MDA-MB-231 cells were plated in 24-well plates on 10 mm square coverslips coated with 10 μg/ml fibronectin and incubated 24-48 hrs before treatment with 50 μM Doxazosin and various doses of compound 27 (0.4, 2, 10, 50 μM) in 0.5% DMSO for 1 hr. As another positive control, cells were treated with 2 μg/ml ephrin-A1-Fc. Cells were then washed with PBS and fixed with 4% paraformaldehyde (Electron Microscopy Sciences, Hatfield, PA) on ice for 10 min, followed by washing and permeabilization with 0.4% NP-40 for 10 min on ice. […] Cells were then incubated in primary mouse EphA2 antibody (D7, 1:100) in 0.1% BSA/PBS for 1 hr at room temperature, washed in PBS and BSA/PBS, followed by incubation in secondary donkey anti-mouse Alexa Fluor 488 antibody (1:300) in BSA/PBS for 30 min at room temperature. Cells were washed in PBS and BSA/PBS, followed by mounting in DAPI Mounting Medium (Electron Microscopy Sciences). Images were taken with a Leica microscope.

T1 sequence (P29317 24-976): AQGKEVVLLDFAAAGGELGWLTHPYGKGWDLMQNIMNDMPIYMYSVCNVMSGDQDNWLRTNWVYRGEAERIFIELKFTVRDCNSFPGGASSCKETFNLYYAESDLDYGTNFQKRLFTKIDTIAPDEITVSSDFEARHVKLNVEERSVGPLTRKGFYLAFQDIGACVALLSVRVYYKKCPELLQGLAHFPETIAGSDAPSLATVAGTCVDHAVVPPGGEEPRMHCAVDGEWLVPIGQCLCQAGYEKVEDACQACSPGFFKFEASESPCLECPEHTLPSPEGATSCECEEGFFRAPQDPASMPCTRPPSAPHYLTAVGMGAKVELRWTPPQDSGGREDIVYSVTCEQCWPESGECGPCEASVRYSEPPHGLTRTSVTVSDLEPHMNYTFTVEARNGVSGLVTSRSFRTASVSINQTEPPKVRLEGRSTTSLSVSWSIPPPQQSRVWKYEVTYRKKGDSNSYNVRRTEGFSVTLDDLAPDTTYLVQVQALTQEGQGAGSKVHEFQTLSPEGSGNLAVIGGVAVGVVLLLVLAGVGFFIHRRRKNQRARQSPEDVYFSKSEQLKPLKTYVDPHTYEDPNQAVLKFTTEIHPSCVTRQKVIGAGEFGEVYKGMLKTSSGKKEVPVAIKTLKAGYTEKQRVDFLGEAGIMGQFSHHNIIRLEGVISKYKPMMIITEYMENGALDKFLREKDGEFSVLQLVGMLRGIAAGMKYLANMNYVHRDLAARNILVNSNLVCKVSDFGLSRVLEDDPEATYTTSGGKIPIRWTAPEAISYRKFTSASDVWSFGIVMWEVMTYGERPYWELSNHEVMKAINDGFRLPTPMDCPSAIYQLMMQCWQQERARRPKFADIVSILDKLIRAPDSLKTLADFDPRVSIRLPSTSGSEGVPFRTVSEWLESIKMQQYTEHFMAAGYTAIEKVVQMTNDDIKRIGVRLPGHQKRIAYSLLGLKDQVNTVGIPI

Take `COc1cc2nc(N3CCN(C(=O)Cc4ccc(OCc5ccccc5)cc4)CC3)nc(N)c2cc1OC` [Compound 24, 1-(4-(4-amino-6,7-dimethoxyquinazolin-2-yl)piperazin-1-yl)-2-(4-(benzyloxy)phenyl)ethanone]: the “EphA2 activation compared to 50 μM Doxazosin” value on EphA2 [1] is “potent EphA2 activation; also recorded: improved EphA2 activation compared to Doxazosin”. Also, in the experiment on MDA-MB-231 cells, the “inhibition of colony formation” value is “slightly weaker activity compared to compound 27; also recorded: inhibit the colony formation”. For the same compound, the IC50 in experiment [2] is 4.28 ± 3.1 nM.
For the compound `COc1cc2nc(N3CCN(C(=O)CCCCC(=O)N4CCN(c5nc(N)c6cc(OC)c(OC)cc6n5)CC4)CC3)nc(N)c2cc1OC` [Compound 28, 1,6-bis(4-(4-amino-6,7-dimethoxyquinazolin-2-yl)piperazin-1-yl)hexane-1,6-dione], the “EphA2 activation compared to 50 μM Doxazosin” value at EphA2 [1] is “does not show any activity to activate EphA2”.
For `COc1cc2nc(N3CCN(C(=O)c4ccc5ccccc5c4)CC3)nc(N)c2cc1OC` [Compound 1, (4-(4-amino-6,7-dimethoxyquinazolin-2-yl)piperazin-1-yl)(naphthalen-2-yl)methanone], the “EphA2 activation compared to 50 μM Doxazosin” value on EphA2 [1] was “higher activity than compound 3; also recorded: did not show a much higher activity than the lead compound Doxazosin”.
In the case of `COc1cc2nc(N3CCN(C(=O)CCCCCCCCCCC(=O)N4CCN(c5nc(N)c6cc(OC)c(OC)cc6n5)CC4)CC3)nc(N)c2cc1OC` [Compound 27, 1,12-bis(4-(4-amino-6,7-dimethoxyquinazolin-2-yl)piperazin-1-yl)dodecane-1,12-dione], the “EphA2 activation compared to 50 μM Doxazosin” value on EphA2 [1] is listed as “superior activity within the new compound pool; also recorded: significantly increased activity compared to Doxazosin; also recorded: the most active one in the SAR study; also recorded: improved EphA2 activation compared to Doxazosin”. In addition, the “concentration at which EphA2 internalization happened” value on EphA2 [3] was 0.4 µM. The “inhibition of colony formation” value with MDA-MB-231 cells is recorded as “inhibited colony formation even at nanomolar concentrations; also recorded: inhibit the colony formation; also recorded: inhibits cancer cell colony formation”. Also, the IC50 in experiment [2] was 2.5 ± 1.62 nM.
On to `CCCCCC(=O)N1CCN(c2nc(N)c3cc(OC)c(OC)cc3n2)CC1` [Compound 23, 1-(4-(4-amino-6,7-dimethoxyquinazolin-2-yl)piperazin-1-yl)hexan-1-one], for which the “EphA2 activation compared to 50 μM Doxazosin” value on EphA2 [1] is reported as “slightly decreased activity”. Besides, in the experiment with MDA-MB-231 cells, the “inhibition of colony formation” value is “moderate activity to inhibit the colony formation”.
Consider `COc1cc2nc(N3CCN(C(=O)c4ccc(Cl)c([N+](=O)[O-])c4)CC3)nc(N)c2cc1OC` [Compound 13, (4-(4-amino-6,7-dimethoxyquinazolin-2-yl)piperazin-1-yl)(4-chloro-3-nitrophenyl)methanone], for which the “EphA2 activation compared to 50 μM Doxazosin” value on EphA2 [1] is “decreases the activity”.
The same measure, in the same setting: next, `COc1cc2nc(N3CCN(C(=O)C4COc5ccccc5O4)CC3)nc(NC(C)=O)c2cc1OC` (centres unmarked) [Compound 29, N-(2-(4-(2,3-dihydrobenzo[b][1,4]dioxine-2-carbonyl)piperazin-1-yl)-6,7-dimethoxyquinazolin-4-yl)acetamide]: “significantly diminishes the activity”.
Consider `COc1cc2nc(N3CCN(C(=O)c4cccc(-c5ccccc5)c4)CC3)nc(N)c2cc1OC` [Compound 2, [1,1′-biphenyl]-3-yl(4-(4-amino-6,7-dimethoxyquinazolin-2-yl)piperazin-1-yl)methanone], for which the “EphA2 activation compared to 50 μM Doxazosin” value at EphA2 [1] is listed as “higher activity than compound 3; also recorded: did not show a much higher activity than the lead compound Doxazosin”.
With `COc1cc2nc(N3CCN(C(=O)Cc4ccc(OCc5ccccc5)cc4)CC3)nc(N3CCCCC3)c2cc1OC` [Compound 31, 2-(4-(benzyloxy)phenyl)-1-(4-(6,7-dimethoxy-4-(piperidin-1-yl)quinazolin-2-yl)piperazin-1-yl)ethanone], the “EphA2 activation compared to 50 μM Doxazosin” value on EphA2 [1] is on record as “harm the EphA2 activation”.
For the compound `COc1cc2nc(N3CCN(C(=O)Cc4ccc(OCc5ccccc5)cc4)CC3)nc(NC(C)=O)c2cc1OC` [Compound 30, N-(2-(4-(2-(4-(benzyloxy)phenyl)acetyl)piperazin-1-yl)-6,7-dimethoxyquinazolin-4-yl)acetamide], the “EphA2 activation compared to 50 μM Doxazosin” value on EphA2 [1] is recorded as “significantly diminishes the activity”.
Take `COc1ccc(C(=O)N2CCN(C(=O)c3ccc(OC)cc3)CC2)cc1` [Compound 25, piperazine-1,4-diylbis((4-methoxyphenyl)methanone)]: the “EphA2 activation compared to 50 μM Doxazosin” value on EphA2 [1] is “significantly decreased activity”.
As for `COc1cc2nc(N3CCN(C(=O)Cc4ccc(OCc5ccccc5)cc4)CC3)nc(N3CCCC3)c2cc1OC` [Compound 32, 2-(4-(benzyloxy)phenyl)-1-(4-(6,7-dimethoxy-4-(pyrrolidin-1-yl)quinazolin-2-yl)piperazin-1-yl)ethanone], the “EphA2 activation compared to 50 μM Doxazosin” value on EphA2 [1] is listed as “harm the EphA2 activation”.
The same measure, in the same setting: next, `CCOc1cc2nc(N3CCN(C(=O)Cc4ccc(OCc5ccccc5)cc4)CC3)nc(N)c2cc1OCC` [Compound 33, 1-(4-(4-amino-6,7-diethoxyquinazolin-2-yl)piperazin-1-yl)-2-(4-(benzyloxy)phenyl)ethanone]: “diminishes the activity”.
Consider `CSc1ccc(C(=O)N2CCN(C(=O)c3ccc(SC)cc3)CC2)cc1` [Compound 26, piperazine-1,4-diylbis((4-(methylthio)phenyl)methanone)], for which, on EphA2 [1], the “EphA2 activation compared to 50 μM Doxazosin” value is recorded as “significantly decreased activity”.
